Experimental findings from ChEMBL document CHEMBL4145689, “Tailoring the Substitution Pattern on 1,3,5-Triazine for Targeting Cyclooxygenase-2: Discovery and Structure-Activity Relationship of Triazine-4-Aminophenylmorpholin-3-one Hybrids that Reverse Algesia and Inflammation in Swiss Albino Mice” (J Med Chem, 2018) are described below.

This experiment has as its target T1, Prostaglandin G/H synthase 1 (Ovis aries, UniProt P05979).
T1 sequence (P05979 whole entry): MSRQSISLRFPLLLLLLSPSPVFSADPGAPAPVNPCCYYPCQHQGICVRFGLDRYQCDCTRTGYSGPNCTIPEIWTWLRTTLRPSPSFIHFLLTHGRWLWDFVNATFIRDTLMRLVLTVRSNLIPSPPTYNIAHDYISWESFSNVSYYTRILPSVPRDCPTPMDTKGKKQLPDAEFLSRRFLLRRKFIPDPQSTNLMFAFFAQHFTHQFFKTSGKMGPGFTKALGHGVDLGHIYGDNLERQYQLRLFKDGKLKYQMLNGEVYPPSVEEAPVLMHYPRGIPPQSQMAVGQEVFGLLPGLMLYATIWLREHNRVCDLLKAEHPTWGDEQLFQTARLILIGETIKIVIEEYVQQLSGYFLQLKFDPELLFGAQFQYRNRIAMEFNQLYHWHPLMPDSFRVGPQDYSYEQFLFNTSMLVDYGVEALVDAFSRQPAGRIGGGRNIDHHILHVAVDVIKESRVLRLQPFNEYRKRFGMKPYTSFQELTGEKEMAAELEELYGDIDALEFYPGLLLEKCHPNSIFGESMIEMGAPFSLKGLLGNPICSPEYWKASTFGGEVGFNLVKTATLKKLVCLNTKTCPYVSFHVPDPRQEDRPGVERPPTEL
As to the kind of experiment: Inhibition of ovine COX1 pre-incubated for 10 mins before arachidonic acid addition and measured after 2 mins by EIA method.
The term IC50 denotes the concentration needed to halve the response being measured. A lower IC50 goes with greater potency in that assay. As for `O=C1COCCN1c1ccc(Nc2nc(Cl)nc(N3CCN(c4ccccc4)CC3)n2)cc1`, the half-maximal inhibitory concentration (IC50) was above 10 µM.
Regarding `Cc1ccc(Nc2nc(Cl)nc(Nc3ccc(N4CCOCC4=O)cc3)n2)cc1`, the IC50 was above 10 µM.
In turn, `O=C1COCCN1c1ccc(Nc2nc(Cl)nc(N3CCOCC3)n2)cc1` gave an IC50 above 10 µM.
The same measure for `Cc1ccc(S(=O)(=O)NCCOc2nc(Cl)nc(Nc3ccc(N4CCOCC4=O)cc3)n2)cc1`: above 10 µM.
Compound `O=C1COCCN1c1ccc(Nc2nc(Cl)nc(Cl)n2)cc1` came in with an IC50 above 10 µM.
The same measure for `O=C1COCCN1c1ccc(Nc2nc(Cl)nc(NCc3ccccc3)n2)cc1`: above 10 µM.
The compound `O=C(NCCOc1nc(Cl)nc(Nc2ccc(N3CCOCC3=O)cc2)n1)c1ccc(Cl)s1` gave an IC50 above 10 µM.
With `O=C(NCCOc1nc(Cl)nc(Nc2ccc(N3CCOCC3=O)cc2)n1)c1ccccc1F` the figure was above 10 µM; with `NCCOc1nc(Cl)nc(Nc2ccc(N3CCOCC3=O)cc2)n1`, above 10 µM.
The same measure for `O=C1COCCN1c1ccc(Nc2nc(Nc3ccc(Cl)cc3)nc(N3CCOCC3)n2)cc1`: 5 µM.
Consider `O=C(NCCOc1nc(Cl)nc(Nc2ccc(N3CCOCC3=O)cc2)n1)C1CCCN1C(=O)OCc1ccccc1` (configuration not stated), for which the half-maximal inhibitory concentration (IC50) is above 10 µM.
With `O=C1COCCN1c1ccc(Nc2nc(Cl)nc(Nc3ccc(Br)cc3)n2)cc1` the figure was 50 µM.
